Laboratory results taken from patent US6541491B1, “4-mercaptopyrrolidine derivatives as farnesyl transferase inhibitors” (Zeneca Limited, priority 1995, dated 2003).
Counter-ions that a name gives are not always drawn.

Experiments:
[1] = target: T1, Farnesyl protein transferase (FPT) (Homo sapiens, UniProt P49354+P49356); test: Farnesyl protein transferase (FPT) inhibition, tritiated farnesyl pyrophosphate incorporation into ras-CVIM; type: biochemical; settings: FPT partially purified from human placenta; 300 nM tritiated farnesyl pyrophosphate, 120 nM ras-CVIM, 20 minutes at 37°
T1 construct: partially purified from human placenta by ammonium sulphate fractionation; from tissue; host or cells: human placenta
Experimental: Biological activity was tested as follows. Farnesyl protein transferase (FPT) was partially purified from human placenta by ammonium sulphate fractionation followed by a single Q-Sepharose® (Pharmacia. Inc) anion exchange chromatography essentially as described by Ray and Lopez-Belmonte (Ray K P and Lopez-Belmonte J (1992) Biochemical Society Transations 20 494-497). The substrate for FPT was Kras (CVIM C-terminal sequence). The cDNA for oncogenic val 12 variant of human c-Ki-ras-24B was obtained from the plasmid pSW11-1(ATCC). This was then subcloned into the polylinker of a suitable expression vector e.g. plC 147. The Kras was obtained after expression in the E. coli strain, BL21. The expression and purification of c-KI-ras-24B and the vall2 variant in E. coli has also been reported by Lowe et al (Lowe P N et al. J. Biol. Chem. (1991) 266 1672-1678).
Incubations with enzyme contained 300 nM tritiated farnesyl pyrophosphate (DuPont/New England Nuclear), 120 nM ras-CVIM, 50 mM Tris HCl pH 8.0. 5 mM MgCl2, 10 μM ZnCl2, 5 mM dithiotheitol and compounds were added at appropriate concentrations in DMSO (3% final concentration in test and vehicle control). […] Precipitated protein was then collected onto glass fibre filter mats (B) using a Tomtec® cell harvester and tritiated label was measured in a Wallac® 1204 Betaplate scintillation counter.

SMILES | IC50 [1] | melting point
C=CCOC(=O)c1cc(NC(=O)[C@@H]2C[C@H](SC(C)=O)CN2C(=O)OCc2ccc([N+](=O)[O-])cc2)cc(C(=O)N(C)OC)c1 [Example 7, 5 {[(2S,4S),4-acetylsulfanyl-1-(4-nitro-benzyloxycarbonyl)-pyrrolidine-2-carbonyl]-amino}-3(N-methyl-methoxycarbamoyl)-benzoic acid allyl ester] | ~0.5 µM | –
O=C(NCc1ccc(Cl)c(Cl)c1)c1ccc(C(=O)NC[C@@H]2C[C@H](S)CN2)nc1 (as salt: salt) [Example 13, 5-[N-(3,4-dichlorobenzyl)carbamoyl]-N-((2S,4S)-4-sulfanylpyrrolidin-2-yl-methyl)pyridine-2-carboxamide] | – | 101 to 105 °C
